From ChEMBL document CHEMBL1150825, “Anti-HIV prenylated flavonoids from Monotes africanus” (J Nat Prod, 2001)
Converted amounts (≈) assume the structure as drawn.

Test system: Human immunodeficiency virus; call rule not given here
Experiment: Antiviral activity against HIV assessed as protection against virus-induced cytopathicity by cell based XTT assay
Assay type: functional, organism-based
[1] = Human immunodeficiency virus 1, read-out: EC50

Structure (SMILES)	EC50	IC50 (Human immunodeficiency virus 1)	EC50 [1]
CC(C)=CCC/C(C)=C/Cc1c(O)cc2c(c1O)C(=O)[C@H](O)[C@@H](c1ccc(O)cc1)O2 [BONANNIOL A]	Not Active		
CC(C)=CCC/C(C)=C/Cc1c(O)cc2oc(-c3ccc(O)cc3)c(O)c(=O)c2c1O [MACARANGIN]	Not Active		
CC(C)=CCc1c(O)c(CC=C(C)C)c2c(c1O)C(=O)C[C@@H](c1ccc(O)cc1)O2 [LONCHOCARPOL A]		2.7 µg/mL (≈ 6.61 µM)	1.3 µg/mL (≈ 3.18 µM)
CC(C)=CCc1c(O)c(CC=C(C)C)c2oc(-c3ccc(O)cc3)c(O)c(=O)c2c1O		5.8 µg/mL (≈ 13.7 µM)	2.4 µg/mL (≈ 5.68 µM)
C=CC(C)(C)c1c(O)cc2c(c1O)C(=O)C[C@@H](c1ccc(O)cc1)O2	Not Active		
CC(C)=CCc1c(O)c(CC=C(C)C)c2c(c1O)C(=O)[C@H](O)[C@@H](c1ccc(O)cc1)O2		4.7 µg/mL (≈ 11.1 µM)	2.1 µg/mL (≈ 4.95 µM)
